Several values for one entry are separate records, joined by “and”; a condition that tells them apart may be missing. Equal entries are not always repeated.
Tests used:
[1] = molecular target: wild-type human cardiac sodium channel, hNav1.5 (late sodium current) (Homo sapiens, UniProt Q14524); assay: Late INa screening assay (PatchXpress whole cell patch clamp); type: cell-based; details: HEK293, 10 μM test compound; HEK293 cells expressing hNav1.5; late INa generated with 10 μM Tefluthrin (some experiments 50 nM ATX II); read-out: Late INa % blk (10 μM test cmpd)
Method: The late sodium current (Late INa) and peak sodium current (Peak INa) assays were performed on an automated electrophysiology platform, PatchXpress 7000A (MDS Analytical Technologies, Sunnyvale, Calif.), which uses the whole cell patch clamp technique to measure currents through the cell membrane of up to 16 cells at a time. The assay used an HEK293 (human embryonic kidney) cell line heterologously expressing the wild-type human cardiac sodium channel, hNav1.5, purchased from Millipore (Billerica, Mass.). No beta subunits were coexpressed with the Na channel alpha subunit. Cells were maintained with standard tissue culture procedures and stable channel expression was maintained with 400 μg/ml Geneticin in the culture medium. Cells isolated for use on PatchXpress were incubated for 5 minutes in Versene 1× and then for 2 minutes in 0.0125% Trypsin-EDTA (both at 37° C.) to ensure that 80-90% of the cells are single and not part of a cell cluster. Experiments were carried out at 24-27° C.
For both the Late INa and Peak INa assays, series resistance compensation was set to 50% and whole-cell compensation was performed automatically. Currents were low-pass filtered at 10 kHz and digitized at 31.25 kHz. Currents through open sodium channels were automatically recorded and stored in the DataXpress2 database (MDS Analytical Technologies, Sunnyvale, Calif.). Analysis was performed using DataXpress2 analysis software and data are compiled in Excel.
Compound stocks were routinely made in glass vials to 10 mM in dimethyl sulfoxide (DMSO). In some cases, when compounds were not soluble in DMSO, they were made in 100% ethanol. Stocks were sonicated as necessary. The extracellular solution for screening Late INa was composed of: 140 mM NaCl, 4 mM KCl, 1.8 mM CaCl2, 0.75 mM MgCl2, and 5 mM HEPES with pH adjusted to 7.4 using NaOH. The extracellular solution for screening Peak INa was composed of: 20 mM NaCl, 120 mM N-methyl-D glucamine, 4 mM KCl, 1.8 mM CaCl2, 0.75 mM MgCl2, and 5 mM HEPES with pH adjusted to 7.4 using HCl. The intracellular solution used to perfuse the inside of the cells for both the Late INa and Peak INa assays contains: 120 mM CsF, 20 mM CsCl, 5 mM EGTA, 5 mM HEPES and pH adjusted to 7.4 with CsOH. Compounds were diluted in extracellular solution to 10 μM in glass vials and then transferred to glass well plates before robotic addition to the cells. The 0Na extracellular solution used at the end of each experiment for the Late INa and Peak INa assays to measure baseline current contained: 140 mM N-methyl-D-glucamine; 4 mM KCl; 1.8 mM CaCl2; 0.75 mM MgCl2; 5 mM HEPES and pH was adjusted to 7.4 with HCl.
For the Late INa assay, sodium channels were activated every 10 seconds (0.1 Hz) by depolarizing the cell membrane to −20 mV for 250 milliseconds (ms) from a holding potential of −120 mV. In response to a −20 mV voltage step, typical Nav1.5 sodium currents activated rapidly to a peak negative current and then inactivated nearly completely within 3-4 ms.
All compounds were tested to determine their activity in blocking the late sodium current. Late INa current is generated by adding 10 μM Tefluthrin (pyrethroid) to the extracellular solution while recording Na currents. For some experiments, 50 nM ATX II (sea anemone toxin), another late INa activator, was used to generate the late component. Both activators generate late components that are large enough that block of the late component by compounds can be measured easily. For the purposes of the screening, late INa is defined as the mean current between 225 ms and 250 ms after stepping to −20 mV to activate Na channels. After establishing the whole cell recording configuration, late INa activators were added to each well 4 times over a 16-17 minute period so that the late component of the Na current reached a stable value. Compounds were then added (typically at 10 μM), in the presence of late INa activator, with 3 additions over the course of 7 or 8 minutes. […]

hERG potassium channel = molecular target: T1, hERG potassium channel (Homo sapiens, UniProt Q12809); assay: hERG screening assay (PatchXpress patch clamp); type: cell-based; details: hERG expressed in CHO cells, peak current at -50 mV; for hERG Patch Clamp hERG % blk 1 μm: 1 μM test compound; for hERG Patch Clamp hERG % blk 10 μm: 10 μM test compound
T1 construct: expressed in transfected cells
Method: Compounds were screened to test their activity in blocking the hERG potassium channel. The hERG channel was heterologously expressed in a CHO (Chinese Hamster Ovary) cell line. Cells were maintained with standard tissue culture procedures and stable channel expression was maintained with 500 μg/ml G418 in the culture medium. Cells were harvested for testing on the PatchXpress automated patch clamp with Accumax (Innovative Cell Technologies, San Diego, Calif.) to isolate single cells.
The following solutions were used for electrophysiological recordings. The external solution contained: 2 mM CaCl2; 2 mM MgCl2; 4 mM KCl; 150 mM NaCl; 10 mM Glucose; 10 mM HEPES (pH 7.4 with 1M NaOH, osmolarity). The internal solution contained: 140 mM KCl, 10 mM MgCl2, 6 mM EGTA, 5 mM HEPES, 5 mM ATP (pH adjusted to 7.25 with KOH).
hERG channels are activated when the voltage is stepped to +20 mV from the −80 mV holding potential. During a 5 second step at +20 mV, the channels activated and then largely inactivated, so the currents were relatively small. Upon returning to −50 mV from +20 mV, hERG currents transiently became much larger as inactivation was rapidly removed and then the channel closed. The first step to −50 mV for 300 ms was used as a baseline for measuring the peak amplitude during the step to −50 mV after channel activation. The peak current at −50 mV was measured both under control conditions and after addition of compound.
All compounds were prepared as 10 mM DMSO stocks in glass vials. Stock solutions were mixed by vigorous vortexing and sonication for about 2 minutes at room temperature. For testing, compounds were diluted in glass vials using an intermediate dilution step in pure DMSO and then further diluted to working concentrations in external solution. Dilutions were prepared no longer than 20 minutes before use.
After achieving the whole-cell configuration, cells were monitored for 90 seconds to assess stability and washed with external solution for 66 seconds. The voltage protocol described above was then applied to the cells every 12 seconds and throughout the whole procedure. Only cells with stable recording parameters and meeting specified health criteria were allowed to enter the compound addition procedure.
External solution containing 0.1% DMSO (vehicle) was applied to the cells first to establish the control peak current amplitude. After allowing the current to stabilize for 3 to 5 minutes, 1 μM and then 10 μM test compounds were applied. Each compound concentration was added 4 times and cells were kept in test solution until the effect of the compound reached steady state or for a maximum of 12 minutes. After addition of test compound, a positive control (1 μM Cisapride) was added—it must block >95% of the current for the experiment to be considered valid. Washout in the external solution compartment was performed until the recovery of the current reached steady state. Data were analyzed using DataXpress, Clampfit (Molecular Devices, Inc., Sunnyvale) and Origin 7 (Originlab Corp.)

Chain of wild-type human cardiac sodium channel, hNav1.5 (late sodium current) (Q14524 whole entry): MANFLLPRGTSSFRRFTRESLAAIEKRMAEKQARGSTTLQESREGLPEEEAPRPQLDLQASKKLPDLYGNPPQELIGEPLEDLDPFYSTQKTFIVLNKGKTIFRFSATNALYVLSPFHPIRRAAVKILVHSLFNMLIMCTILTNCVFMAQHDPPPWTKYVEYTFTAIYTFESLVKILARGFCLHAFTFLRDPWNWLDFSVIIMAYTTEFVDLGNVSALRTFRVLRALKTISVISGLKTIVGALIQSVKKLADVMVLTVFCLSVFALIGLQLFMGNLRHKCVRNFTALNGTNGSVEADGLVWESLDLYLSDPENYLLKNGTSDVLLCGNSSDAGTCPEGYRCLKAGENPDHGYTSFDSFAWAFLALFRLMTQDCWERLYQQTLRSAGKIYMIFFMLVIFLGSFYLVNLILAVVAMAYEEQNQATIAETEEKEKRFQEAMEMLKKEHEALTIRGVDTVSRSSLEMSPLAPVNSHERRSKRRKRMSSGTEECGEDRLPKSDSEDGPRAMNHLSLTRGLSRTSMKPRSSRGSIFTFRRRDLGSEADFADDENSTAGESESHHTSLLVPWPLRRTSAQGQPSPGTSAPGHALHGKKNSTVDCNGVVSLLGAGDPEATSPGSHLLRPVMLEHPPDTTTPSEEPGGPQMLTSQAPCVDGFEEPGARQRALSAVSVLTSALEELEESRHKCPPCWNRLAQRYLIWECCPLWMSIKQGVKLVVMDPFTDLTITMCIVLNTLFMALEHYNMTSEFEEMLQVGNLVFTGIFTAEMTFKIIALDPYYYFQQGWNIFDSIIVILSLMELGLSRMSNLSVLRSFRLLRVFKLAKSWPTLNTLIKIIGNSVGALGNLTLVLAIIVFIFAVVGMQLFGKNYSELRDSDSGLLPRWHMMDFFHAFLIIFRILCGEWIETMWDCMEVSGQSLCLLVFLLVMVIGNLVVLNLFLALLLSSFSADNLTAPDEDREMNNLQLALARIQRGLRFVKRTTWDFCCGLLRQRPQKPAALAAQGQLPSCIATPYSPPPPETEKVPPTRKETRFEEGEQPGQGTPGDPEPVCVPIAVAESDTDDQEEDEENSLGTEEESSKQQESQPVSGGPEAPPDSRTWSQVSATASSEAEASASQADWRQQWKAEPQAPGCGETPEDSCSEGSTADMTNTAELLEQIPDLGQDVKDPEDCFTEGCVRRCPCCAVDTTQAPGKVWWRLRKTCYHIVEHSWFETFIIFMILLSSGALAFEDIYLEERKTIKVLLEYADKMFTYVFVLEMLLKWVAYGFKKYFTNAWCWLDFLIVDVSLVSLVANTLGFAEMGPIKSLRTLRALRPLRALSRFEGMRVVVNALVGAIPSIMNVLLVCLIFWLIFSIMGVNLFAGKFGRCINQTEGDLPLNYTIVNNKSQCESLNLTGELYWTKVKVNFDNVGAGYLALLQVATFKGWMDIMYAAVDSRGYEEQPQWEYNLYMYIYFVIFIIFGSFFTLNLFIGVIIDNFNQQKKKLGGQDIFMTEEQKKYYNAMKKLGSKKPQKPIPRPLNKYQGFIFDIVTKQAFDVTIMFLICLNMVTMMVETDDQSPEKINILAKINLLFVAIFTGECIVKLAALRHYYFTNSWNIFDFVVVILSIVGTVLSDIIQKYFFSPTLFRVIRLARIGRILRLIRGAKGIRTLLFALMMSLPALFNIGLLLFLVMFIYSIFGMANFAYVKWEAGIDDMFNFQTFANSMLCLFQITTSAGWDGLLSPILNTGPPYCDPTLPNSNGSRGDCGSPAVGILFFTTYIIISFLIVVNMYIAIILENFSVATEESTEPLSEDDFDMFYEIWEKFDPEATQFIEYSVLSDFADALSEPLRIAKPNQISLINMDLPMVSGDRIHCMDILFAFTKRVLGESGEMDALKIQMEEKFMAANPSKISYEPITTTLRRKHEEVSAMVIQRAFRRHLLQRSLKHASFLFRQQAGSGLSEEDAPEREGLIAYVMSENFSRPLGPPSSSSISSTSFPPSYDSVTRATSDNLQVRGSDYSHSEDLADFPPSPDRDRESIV
T1 sequence (Q12809 whole entry): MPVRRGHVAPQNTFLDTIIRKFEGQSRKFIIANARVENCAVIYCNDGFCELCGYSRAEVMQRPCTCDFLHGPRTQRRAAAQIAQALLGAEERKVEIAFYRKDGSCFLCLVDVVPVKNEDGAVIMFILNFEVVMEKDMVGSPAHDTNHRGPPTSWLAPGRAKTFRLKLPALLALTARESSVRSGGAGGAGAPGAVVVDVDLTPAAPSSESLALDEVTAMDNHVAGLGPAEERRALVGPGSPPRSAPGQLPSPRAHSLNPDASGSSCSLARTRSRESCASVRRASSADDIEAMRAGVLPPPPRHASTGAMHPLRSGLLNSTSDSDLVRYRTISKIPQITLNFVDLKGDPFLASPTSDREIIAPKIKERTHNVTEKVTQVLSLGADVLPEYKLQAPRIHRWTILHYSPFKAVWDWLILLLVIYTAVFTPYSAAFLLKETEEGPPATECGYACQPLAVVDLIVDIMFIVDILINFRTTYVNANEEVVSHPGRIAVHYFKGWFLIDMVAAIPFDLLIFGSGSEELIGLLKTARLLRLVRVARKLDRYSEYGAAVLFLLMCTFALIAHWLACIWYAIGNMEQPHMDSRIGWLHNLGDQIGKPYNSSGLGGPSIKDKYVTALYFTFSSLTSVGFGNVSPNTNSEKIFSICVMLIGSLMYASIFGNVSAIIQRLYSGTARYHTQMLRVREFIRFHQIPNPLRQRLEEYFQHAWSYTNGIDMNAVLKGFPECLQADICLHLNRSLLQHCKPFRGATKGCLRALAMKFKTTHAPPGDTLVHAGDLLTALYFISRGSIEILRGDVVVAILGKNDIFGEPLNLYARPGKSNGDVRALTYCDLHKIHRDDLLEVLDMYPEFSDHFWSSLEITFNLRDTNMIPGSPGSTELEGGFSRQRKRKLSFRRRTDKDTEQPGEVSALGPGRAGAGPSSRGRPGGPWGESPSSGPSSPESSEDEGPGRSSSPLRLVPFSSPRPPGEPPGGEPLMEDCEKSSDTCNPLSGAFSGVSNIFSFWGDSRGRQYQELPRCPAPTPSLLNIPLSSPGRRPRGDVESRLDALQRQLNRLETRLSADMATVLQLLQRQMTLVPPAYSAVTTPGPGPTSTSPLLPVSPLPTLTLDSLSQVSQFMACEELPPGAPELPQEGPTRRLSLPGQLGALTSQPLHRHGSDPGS

With `O=C(O)CN1C(=O)CCc2cc(-c3ccc(Cl)c(F)c3)ccc21` [Compound 58, [6-(4-chloro-3-fluorophenyl)-2-oxo-3,4-dihydroquinolin-1(2H)-yl]acetic acid] the inhibition at 10 µM [1] was 13%, the “hERG Patch Clamp hERG % blk 1 μm” value (hERG potassium channel) was 10% and the “hERG Patch Clamp hERG % blk 10 μm” value (hERG potassium channel) was 10%.
In the case of `O=C1CCc2cc(-c3ccc(C(F)(F)F)cc3)ccc2N1CCO` [Compound 14, 1-(2-hydroxyethyl)-6-[4-(trifluoromethyl)phenyl]-3,4-dihydroquinolin-2(1H)-one], the inhibition at 10 µM [1] is reported as 29%, the “hERG Patch Clamp hERG % blk 1 μm” value (hERG potassium channel) is reported as 10% and the “hERG Patch Clamp hERG % blk 10 μm” value (hERG potassium channel) is reported as 28%.
For `Cc1cc(CN2C(=O)CCc3cc(-c4ccc(OC(F)(F)F)cc4)ccc32)no1` [Compound 39, 1-[(5-methylisoxazol-3-yl)methyl]-6-[4-(trifluoromethoxy)phenyl]-3,4-dihydroquinolin-2(1H)-one], the inhibition at 10 µM [1] was 60%, the “hERG Patch Clamp hERG % blk 1 μm” value (hERG potassium channel) was 12% and the “hERG Patch Clamp hERG % blk 10 μm” value (hERG potassium channel) was 96%.
In the case of `O=C(O)CN1C(=O)CCc2cc(-c3ccc(Oc4ccccc4)cc3)ccc21` [Compound 70, [2-oxo-6-(4-phenoxyphenyl)-3,4-dihydroquinolin-1(2H)-yl]acetic acid], the inhibition at 10 µM [1] is reported as 17%, the “hERG Patch Clamp hERG % blk 1 μm” value (hERG potassium channel) is reported as 10% and the “hERG Patch Clamp hERG % blk 10 μm” value (hERG potassium channel) is reported as 10%.
`CN1C(=O)CCc2cc(-c3cccc(F)c3)ccc21` [Compound 21, 6-(3-fluorophenyl)-1-methyl-3,4-dihydroquinolin-2(1H)-one] was tested, and the inhibition at 10 µM [1] was 65%, the “hERG Patch Clamp hERG % blk 1 μm” value (hERG potassium channel) was 11% and the “hERG Patch Clamp hERG % blk 10 μm” value (hERG potassium channel) was 36%.
`O=C(O)CN1C(=O)CCc2cc(-c3cccc(C(F)(F)F)c3)ccc21` [Compound 60, 2-(2-oxo-6-(3-(trifluoromethyl)phenyl)-3,4-dihydroquinolin-1(2H)-yl)acetic acid] was tested, and the inhibition at 10 µM [1] was 25%, the “hERG Patch Clamp hERG % blk 1 μm” value (hERG potassium channel) was 10% and the “hERG Patch Clamp hERG % blk 10 μm” value (hERG potassium channel) was 10%.
With `O=C1CCc2cc(-c3cccc(F)c3)ccc2N1` [Compound 1, 6-(3-fluorophenyl)-3,4-dihydroquinolin-2(1H)-one] the inhibition at 10 µM [1] was 74%, the “hERG Patch Clamp hERG % blk 1 μm” value (hERG potassium channel) was 10% and the “hERG Patch Clamp hERG % blk 10 μm” value (hERG potassium channel) was 19%.
With `O=C(O)CN1C(=O)CCc2cc(-c3ccc(Cl)c(Cl)c3)ccc21` [Compound 69, [6-(3,4-dichlorophenyl)-2-oxo-3,4-dihydroquinolin-1(2H)-yl]acetic acid] the inhibition at 10 µM [1] was 16%, the “hERG Patch Clamp hERG % blk 1 μm” value (hERG potassium channel) was 10% and the “hERG Patch Clamp hERG % blk 10 μm” value (hERG potassium channel) was 10%.
With `O=C1CCc2cc(-c3ccc(F)c(F)c3)ccc2N1CCO` [Compound 15, 6-(3,4-difluorophenyl)-1-(2-hydroxyethyl)-3,4-dihydroquinolin-2(1H)-one] the inhibition at 10 µM [1] was 36%, the “hERG Patch Clamp hERG % blk 1 μm” value (hERG potassium channel) was 13% and the “hERG Patch Clamp hERG % blk 10 μm” value (hERG potassium channel) was 59%.
For `O=C1CCc2cc(-c3ccccc3)ccc2N1` [Compound 4, 6-phenyl-3,4-dihydroquinolin-2(1H)-one], the inhibition at 10 µM [1] was 48%, the “hERG Patch Clamp hERG % blk 1 μm” value (hERG potassium channel) was 10% and the “hERG Patch Clamp hERG % blk 10 μm” value (hERG potassium channel) was 16%.
In the case of `CCOC(=O)CN1C(=O)CCc2cc(-c3ccc(OC(F)(F)F)cc3)ccc21` [Compound 25, ethyl {2-oxo-6-[4-(trifluoromethoxy)phenyl]-3,4-dihydroquinolin-1(2H)-yl}acetate], the inhibition at 10 µM [1] is reported as 20%, the “hERG Patch Clamp hERG % blk 1 μm” value (hERG potassium channel) is reported as 26% and the “hERG Patch Clamp hERG % blk 10 μm” value (hERG potassium channel) is reported as 32%.
With `O=C1CCc2cc(-c3ccc(F)cc3F)ccc2N1Cc1csc(-c2ccc(Cl)cc2)n1` [Compound 26, 1-{[2-(4-chlorophenyl)-1,3-thiazol-4-yl]methyl}-6-(2,4-difluorophenyl)-3,4-dihydroquinolin-2(1H)-one] the inhibition at 10 µM [1] was 20%, the “hERG Patch Clamp hERG % blk 1 μm” value (hERG potassium channel) was 10% and the “hERG Patch Clamp hERG % blk 10 μm” value (hERG potassium channel) was 10%.
With `O=C1CCc2cc(-c3ccc(OC(F)(F)F)cc3)ccc2N1` [Compound 34, 6-[4-(trifluoromethoxy)phenyl]-3,4-dihydroquinolin-2(1H)-one] the inhibition at 10 µM [1] was 60%, the “hERG Patch Clamp hERG % blk 1 μm” value (hERG potassium channel) was 13% and the “hERG Patch Clamp hERG % blk 10 μm” value (hERG potassium channel) was 37%.
In the case of `CC(O)CN1C(=O)CCc2cc(-c3ccc(OC(F)(F)F)cc3)ccc21` (stereo not drawn) [Compound 89, 1-(2-hydroxypropyl)-6-[4-(trifluoromethoxy)phenyl]-3,4-dihydroquinolin-2(1H)-one], the inhibition at 10 µM [1] is reported as 42%, the “hERG Patch Clamp hERG % blk 1 μm” value (hERG potassium channel) is reported as 24% and 16% and the “hERG Patch Clamp hERG % blk 10 μm” value (hERG potassium channel) is reported as 67% and 72%.
In the case of `COCCN1C(=O)CCc2cc(-c3ccc(F)cc3F)ccc21` [Compound 27, 6-(2,4-difluorophenyl)-1-(2-methoxyethyl)-3,4-dihydroquinolin-2(1H)-one], the inhibition at 10 µM [1] is reported as 52%, the “hERG Patch Clamp hERG % blk 1 μm” value (hERG potassium channel) is reported as 12% and the “hERG Patch Clamp hERG % blk 10 μm” value (hERG potassium channel) is reported as 47%.
For `COCCN1C(=O)CCc2cc(-c3ccc(C(F)(F)F)cc3)ccc21` [Compound 49, 1-(2-methoxyethyl)-6-[4-(trifluoromethyl)phenyl]-3,4-dihydroquinolin-2(1H)-one], the inhibition at 10 µM [1] was 60%, the “hERG Patch Clamp hERG % blk 1 μm” value (hERG potassium channel) was 10% and the “hERG Patch Clamp hERG % blk 10 μm” value (hERG potassium channel) was 42%.

Reference: US8664379B2, “Fused heterocyclic compounds as ion channel modulators” (Gilead Sciences, Inc., priority 2008, dated 2014)
